# Read-outs that look alike come from different tables or passages of the source.
# Molecular target: T1, IRAK4 (Homo sapiens, UniProt Q9NWZ3)
# T1 construct: Degradation of IRAK4 in OCI-LY10 was quantitatively measured using Meso Scale Discovery technology; endogenous in cells; host or cells: OCI-LY10
# T1 sequence (Q9NWZ3 1-460): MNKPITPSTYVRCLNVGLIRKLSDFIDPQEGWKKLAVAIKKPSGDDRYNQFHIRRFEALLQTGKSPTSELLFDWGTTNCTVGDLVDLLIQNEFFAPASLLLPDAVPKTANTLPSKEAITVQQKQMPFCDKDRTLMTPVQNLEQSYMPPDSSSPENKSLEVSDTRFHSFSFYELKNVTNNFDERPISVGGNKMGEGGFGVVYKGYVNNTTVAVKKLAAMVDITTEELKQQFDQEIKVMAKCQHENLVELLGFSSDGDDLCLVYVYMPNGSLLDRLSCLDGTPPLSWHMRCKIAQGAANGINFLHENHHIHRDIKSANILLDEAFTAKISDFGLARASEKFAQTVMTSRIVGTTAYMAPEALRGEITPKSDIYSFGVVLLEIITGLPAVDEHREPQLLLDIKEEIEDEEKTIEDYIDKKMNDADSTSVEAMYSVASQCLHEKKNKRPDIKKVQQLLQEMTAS
# Assay: IRAK4 MSD Degradation in OCI-LY10
# Assay type: cell-based
# Details: OCI-LY10 cells, MSD
# Procedure, shortened: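 DC50, from a three-parameter logistic fit and reported as letter bins A (<0.01 μM), B, C, D (>0.2 μM or not tested), reflects IRAK4 loss measured by MSD electrochemiluminescence in OCI-LY10 lysates. Treatment: 8 doses, 1:3 steps, top 1 to 10 μM, 4 to 24 h, 37 °C.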
# [1] = 4 hrs incubation, read-out: IRAK4 degradation in OCI-LY10 at 4 hrs: DC50
# [2] = 24 hrs incubation, read-out: IRAK4 degradation in OCI-LY10 at 24 hrs: DC50
Compound,DC50 [1] [nM],DC50 [2] [nM]
O=C1CCN(c2cncc3c(C4CCN(C[C@H]5CC[C@H](n6cc7cc(NC(=O)c8cccc(C(F)(F)F)n8)ccc7n6)CC5)CC4(F)F)cccc23)C(=O)N1 (stereo partly drawn) [I-469],> 200,> 200
COc1cc2nn([C@H]3CC[C@H](CN4CC=C(c5ccc6c(N7CCC(=O)NC7=O)cncc6c5)C(F)(F)C4)CC3)cc2cc1NC(=O)c1cccc(C(F)(F)F)n1 [I-470],> 200,> 200
COc1cc2nn([C@H]3CC[C@H](CN4CCC(c5ccc6c(N7CCC(=O)NC7=O)cncc6c5)C(F)(F)C4)CC3)cc2cc1NC(=O)c1cccc(C(F)(F)F)n1 (stereo partly drawn) [I-471],> 200,> 200
O=C1CCN(c2cncc3cc(C4=CCN(C[C@H]5CC[C@H](n6cc7cc(NC(=O)c8cccc(C(F)(F)F)n8)ccc7n6)CC5)CC4(F)F)ccc23)C(=O)N1 [I-472],> 200,> 200
O=C1CCN(c2cncc3cc(C4CCN(C[C@H]5CC[C@H](n6cc7cc(NC(=O)c8cccc(C(F)(F)F)n8)ccc7n6)CC5)CC4(F)F)ccc23)C(=O)N1 (stereo partly drawn) [I-473],> 200,> 200
CN(C[C@H]1CC[C@H](n2cc3cc(NC(=O)c4cccc(C(F)(F)F)n4)ccc3n2)CC1)C1CCN(c2cccc3c2n(C)c(=O)n3C2CCC(=O)NC2=O)CC1(F)F (stereo partly drawn) [I-474],> 200,> 200
COc1cc2nn([C@H]3CC[C@H](CN(C)C4CCN(c5cccc6c5n(C)c(=O)n6C5CCC(=O)NC5=O)CC4(F)F)CC3)cc2cc1NC(=O)c1cccc(C(F)(F)F)n1 (stereo partly drawn) [I-475],> 200,> 200
CN(C[C@H]1CC[C@H](n2cc3cc(NC(=O)c4cccc(C(F)(F)F)n4)c(C(F)F)cc3n2)CC1)C1CCN(c2cccc3c2n(C)c(=O)n3C2CCC(=O)NC2=O)CC1(F)F (stereo partly drawn) [I-476],> 200,> 200
CN(C[C@H]1CC[C@H](n2cc3cc(NC(=O)c4cccc(C(F)(F)F)n4)c(C#N)cc3n2)CC1)C1CCN(c2cccc3c2n(C)c(=O)n3C2CCC(=O)NC2=O)CC1(F)F (stereo partly drawn) [I-477],> 200,> 200
CN(C[C@H]1CC[C@H](n2cc3cc(NC(=O)c4cccc(C(F)(F)F)n4)c([S+](C)[O-])cc3n2)CC1)C1CCN(c2cccc3c2n(C)c(=O)n3C2CCC(=O)NC2=O)CC1(F)F (stereo partly drawn) [I-478],> 200,> 200
CN(C[C@H]1CC[C@H](n2cc3cc(NC(=O)c4cccc(C(F)(F)F)n4)c(S(C)(=O)=O)cc3n2)CC1)C1CCN(c2cccc3c2n(C)c(=O)n3C2CCC(=O)NC2=O)CC1(F)F (stereo partly drawn) [I-479],> 200,> 200
CN(C[C@H]1CC[C@H](n2cc3cc(NC(=O)c4cccc(C(F)(F)F)n4)c(S(C)(=N)=O)cc3n2)CC1)C1CCN(c2cccc3c2n(C)c(=O)n3C2CCC(=O)NC2=O)CC1(F)F (stereo partly drawn) [I-480],> 200,> 200
CN(C[C@H]1CC[C@H](n2cc(NC(=O)c3cnn4cccnc34)c(C(F)F)n2)CC1)C1CCN(c2ccc3c(c2)n(C)c(=O)n3C2CCC(=O)NC2=O)CC1(F)F (stereo partly drawn) [I-481],> 200,> 200
CN(C[C@H]1CC[C@H](n2cc(NC(=O)c3cnn4cccnc34)c(C(F)F)n2)CC1)C1CCN(c2cccc3c2n(C)c(=O)n3C2CCC(=O)NC2=O)CC1F (stereo partly drawn) [I-482],> 200,> 200
CN(C[C@H]1CC[C@H](n2cc(NC(=O)c3cnn4cccnc34)c(C(F)F)n2)CC1)C1C(F)CN(c2cccc3c2n(C)c(=O)n3C2CCC(=O)NC2=O)CC1F (stereo partly drawn) [I-483],> 200,> 200
CN(C)c1ccn2ncc(C(=O)Nc3cn([C@H]4CC[C@H](CN(C)C5CCN(c6cccc7c6n(C)c(=O)n7C6CCC(=O)NC6=O)CC5(F)F)CC4)nc3C(F)F)c2n1 (stereo partly drawn) [I-484],> 200,10 to 100
CN(C[C@H]1CC[C@H](n2cc(NC(=O)c3cnn4cccnc34)c(C(F)F)n2)CC1)C1CCN(c2cccc3c2n(C)c(=O)n3C2CCC(=O)NC2=O)CC1O (stereo partly drawn) [I-486],> 200,> 200
CN(C[C@]1(O)CC[C@@H](n2cc(NC(=O)c3cnn4cccnc34)c(C(F)F)n2)CC1)C1CCN(c2cccc3c2n(C)c(=O)n3C2CCC(=O)NC2=O)CC1 (stereo partly drawn) [I-487],> 200,> 200
Cn1c(=O)n(C2CCC(=O)NC2=O)c2cccc(C3CCN(C[C@H]4CC[C@H](n5cc6cc(NC(=O)c7cccc(C(F)(F)F)n7)ncc6n5)CC4)CC3(F)F)c21 (stereo partly drawn) [I-488],> 200,> 200
Cn1c(=O)n(C2CCC(=O)NC2=O)c2cccc(C3CCN(C[C@H]4CC[C@H](n5cc6cc(NC(=O)c7cccc(C(F)(F)F)n7)ccc6n5)CC4)CC3(F)F)c21 (stereo partly drawn) [I-489],> 200,> 200

Compound,DC50 [1] [nM],DC50 [2] [nM]
Cn1c(=O)n(C2CCC(=O)NC2=O)c2cccc(C3CCN(C[C@H]4CC[C@H](n5cc6cc(NC(=O)c7cccc(C(F)(F)F)n7)c(C#N)cc6n5)CC4)CC3(F)F)c21 (stereo partly drawn) [I-490],> 200,> 200
CO[C@@H]1CN(c2cccc3c2n(C)c(=O)n3C2CCC(=O)NC2=O)C[C@@H]1N(C)C[C@H]1CC[C@H](n2cc3cc(NC(=O)c4cccc(C(F)(F)F)n4)ccc3n2)CC1 (stereo partly drawn) [I-491],> 200,> 200
CO[C@H]1CN(c2cccc3c2n(C)c(=O)n3C2CCC(=O)NC2=O)C[C@@H]1N(C)C[C@H]1CC[C@H](n2cc3cc(NC(=O)c4cccc(C(F)(F)F)n4)ccc3n2)CC1 (stereo partly drawn) [I-492],> 200,> 200
CO[C@H]1CN(c2cccc3c2n(C)c(=O)n3C2CCC(=O)NC2=O)C[C@H]1N(C)C[C@H]1CC[C@H](n2cc3cc(NC(=O)c4cccc(C(F)(F)F)n4)ccc3n2)CC1 (stereo partly drawn) [I-493],> 200,> 200
CO[C@@H]1CN(c2cccc3c2n(C)c(=O)n3C2CCC(=O)NC2=O)C[C@H]1N(C)C[C@H]1CC[C@H](n2cc3cc(NC(=O)c4cccc(C(F)(F)F)n4)ccc3n2)CC1 (stereo partly drawn) [I-494],> 200,> 200
CO[C@@H]1CN(c2cccc3c2n(C)c(=O)n3C2CCC(=O)NC2=O)CC[C@H]1N(C)C[C@H]1CC[C@H](n2cc3cc(NC(=O)c4cccc(C(F)(F)F)n4)ccc3n2)CC1 (stereo partly drawn) [I-495],> 200,> 200
CO[C@H]1CN(c2cccc3c2n(C)c(=O)n3C2CCC(=O)NC2=O)CC[C@@H]1N(C)C[C@H]1CC[C@H](n2cc3cc(NC(=O)c4cccc(C(F)(F)F)n4)ccc3n2)CC1 (stereo partly drawn) [I-496],> 200,> 200
CO[C@@H]1CN(c2cccc3c2n(C)c(=O)n3C2CCC(=O)NC2=O)CC[C@@H]1N(C)C[C@H]1CC[C@H](n2cc3cc(NC(=O)c4cccc(C(F)(F)F)n4)ccc3n2)CC1 (stereo partly drawn) [I-497],> 200,> 200
CO[C@H]1CN(c2cccc3c2n(C)c(=O)n3C2CCC(=O)NC2=O)CC[C@H]1N(C)C[C@H]1CC[C@H](n2cc3cc(NC(=O)c4cccc(C(F)(F)F)n4)ccc3n2)CC1 (stereo partly drawn) [I-498],> 200,> 200
Cn1c(=O)n(C2CCC(=O)NC2=O)c2cccc(N3CC(F)(F)C34CN(C[C@H]3CC[C@H](n5cc6cc(NC(=O)c7cccc(C(F)(F)F)n7)ccc6n5)CC3)C4)c21 (stereo partly drawn) [I-499],> 200,> 200
Cn1c(=O)n(C2CCC(=O)NC2=O)c2cccc(N3CC4(C3)N(C[C@H]3CC[C@H](n5cc6cc(NC(=O)c7cccc(C(F)(F)F)n7)ccc6n5)CC3)CC4(F)F)c21 (stereo partly drawn) [I-500],> 200,> 200
Cn1c(=O)n(C2CCC(=O)NC2=O)c2cccc(C#CCN3CC4(C3)N(C[C@H]3CC[C@H](n5cc(NC(=O)c6cnn7ccc(N8CCCC8)nc67)c(C(F)F)n5)CC3)CC4(F)F)c21 (stereo partly drawn) [I-501],> 200,> 200
CN(C[C@H]1CC[C@H](n2cc(NC(=O)c3cnn4ccc(N5C[C@H]6C[C@@H]5CO6)nc34)c(C(F)F)n2)CC1)C1CCN(c2cccc3c2n(C)c(=O)n3C2CCC(=O)NC2=O)CC1(F)F (stereo partly drawn) [I-502],> 200,> 200
CN(CC[C@H]1CC[C@H](n2cc(NC(=O)c3cnn4cccnc34)c(C(F)F)n2)CC1)C1CCN(c2cccc3c2n(C)c(=O)n3C2CCC(=O)NC2=O)CC1(F)F (stereo partly drawn) [I-503],> 200,> 200
CN(C[C@H]1CC[C@H](n2cc(NC(=O)c3cnn4ccc(N5CCC5)nc34)c(C(F)F)n2)CC1)C1CCN(c2cccc3c2n(C)c(=O)n3C2CCC(=O)NC2=O)CC1(F)F (stereo partly drawn) [I-504],> 200,> 200
CN(C[C@H]1CC[C@H](n2cc(NC(=O)c3cnn4ccc(N5CC(C)(C)C5)nc34)c(C(F)F)n2)CC1)C1CCN(c2cccc3c2n(C)c(=O)n3C2CCC(=O)NC2=O)CC1(F)F (stereo partly drawn) [I-505],> 200,> 200
CN(C[C@H]1CC[C@H](n2cc(NC(=O)c3cnn4ccc(N5CC6(CC6)C5)nc34)c(C(F)F)n2)CC1)C1CCN(c2cccc3c2n(C)c(=O)n3C2CCC(=O)NC2=O)CC1(F)F (stereo partly drawn) [I-506],> 200,> 200
CN(C[C@H]1CC[C@H](n2cc(NC(=O)c3cnn4ccc(N5CC(F)(F)C5)nc34)c(C(F)F)n2)CC1)C1CCN(c2cccc3c2n(C)c(=O)n3C2CCC(=O)NC2=O)CC1(F)F (stereo partly drawn) [I-507],> 200,> 200
CN(C[C@H]1CC[C@H](n2cc(NC(=O)c3cnn4ccc(N5CC(O)C5)nc34)c(C(F)F)n2)CC1)C1CCN(c2cccc3c2n(C)c(=O)n3C2CCC(=O)NC2=O)CC1(F)F (stereo partly drawn) [I-508],> 200,> 200
